Results taken from patent publication US12059393B2, “Compositions for topical treatment of radiation dermatitis” (Akos Biosciences, Inc, priority 2022, dated 2024).

Assays:
[1] = test system: acute radiation-induced dermatitis; assay: Blinded clinical dermatitis scoring in mouse radiation dermatitis model; type: in vivo, Balb/c mice; parameters: key to Dermatitis score (mean): dermatitis scale 0 to 5, 1.0-unit increments; conditions: for Dermatitis score (mean): Group 4 (30 mg/mL CBD)
Method: A study was performed on mice to determine the efficacy of topically-dosed CBD in an olive oil vehicle for the treatment of acute radiation-induced dermatitis. Three different CBD dosages were used— 30 mg/mL (3 wt %), 120 mg/mL (12 wt %), and 250 mg/mL (25 wt %).
144 female Balb/c mice with an average starting body weight (±SEM) of 17.96±0.12 grams were randomized into six (6) groups of 24 animals each, as follows:
The control group (Group 1) was not irradiated. The animals in Groups 2-6 were anesthetized via a single intraperitoneal injection of xylazine and ketamine prior to being administered a single dose of 30 Grays (Gy) of radiation directed at a 2 cm×4 cm patch of shaved dorsal skin on Day 0. Radiation was generated by a 160 kVp (15-ma) X-ray source at a focal distance of 10 cm, hardened with a 0.35 mm Cu filtration system at a rate of approximately 3.2 Gy/minute.
Dosing for animals in Groups 3-6 began on Day 0 immediately after radiation. Treatments were administered topically (0.1 mL per animal) daily from Days 0-28.
Starting on Day 8 and continuing every other day thereafter (Days 8-28), each animal was evaluated for skin redness and dermatitis, and photographed for subsequent blinded scoring of dermatitis at the completion of the study. Body weight was taken daily.
Dermatitis was measured by blinded scoring of photographs at the end of the study. Two independent observers graded the photographs, and results were reported on a scale of 0 to 5 in 1.0 unit increments. The scale is described in the table below:
Data were evaluated using one-way ANOVA with Dunnett's multiple comparisons test to compare all groups to the vehicle control group using GraphPad Prism 8.4.3 (La Jolla, CA Duration of dermatitis data was evaluated using the Chi-square test to compare all groups to the vehicle-control group and radiation only group using SigmaPlot 11.0 (Systat Software, Inc.). Statistical significance was achieved when p<0.05.
The following table provides information on the duration of moderate dermatitis, which is defined as the number of days on which scores were at least 2
Bold values indicate a decrease (improvement), and underlined values indicate an increase (worsening).

[2] = test system: acute radiation-induced dermatitis; assay: as above; type: in vivo, Balb/c mice; conditions: 150 mg/mL CBD
[3] = 120 mg/mL CBD, 148 total animal days
[4] = 150 mg/mL CBD, 147 total animal days

## C=C(C)[C@@H]1CCC(C)=C[C@H]1c1c(O)cc(CCCCC)cc1O [CBD, 2-[(1R,6R)-6-Isopropenyl-3-methylcyclohex-2-en-1-yl]-5-pentylbenzene-1,3-diol]
[1]; 120 mg/mL CBD, Day 12
  Percentage of Animals with Moderate Dermatitis (≥3): 50%
[1]; 120 mg/mL CBD, Day 14
  Percentage of Animals with Moderate Dermatitis (≥2): 100%
  Percentage of Animals with Moderate Dermatitis (≥3): 75%
[1]; 120 mg/mL CBD, Day 16
  Percentage of Animals with Moderate Dermatitis (≥2): 83.3%
  Percentage of Animals with Moderate Dermatitis (≥3): 25%
[1]; 120 mg/mL CBD, Day 18
  Percentage of Animals with Moderate Dermatitis (≥2): 83.3%
  Percentage of Animals with Moderate Dermatitis (≥3): 8.3%
[1]; 120 mg/mL CBD, Day 20
  Percentage of Animals with Moderate Dermatitis (≥2): 58.3%
  Percentage of Animals with Moderate Dermatitis (≥3): 0%
[1]; 120 mg/mL CBD, Day 22
  Percentage of Animals with Moderate Dermatitis (≥2): 33.3%
  Percentage of Animals with Moderate Dermatitis (≥3): 0%
[1]; 120 mg/mL CBD, Day 24
  Percentage of Animals with Moderate Dermatitis (≥2): 33.3%
  Percentage of Animals with Moderate Dermatitis (≥3): 0%
[1]; 120 mg/mL CBD, Day 26
  Percentage of Animals with Moderate Dermatitis (≥2): 33.3%
  Percentage of Animals with Moderate Dermatitis (≥3): 0%
[1]; 120 mg/mL CBD, Day 28
  Percentage of Animals with Moderate Dermatitis (≥2): 8.3%
  Percentage of Animals with Moderate Dermatitis (≥3): 0%
[1]; [3]
  Days <2 (animal days): 60
  Days ≥2 (duration of moderate dermatitis, animal days): 88
[1]; [4]
  Days <2 (animal days): 57
  Days ≥2 (duration of moderate dermatitis, animal days): 90
[1]; 250 mg/mL CBD, Day 8
  Percentage of Animals with Moderate Dermatitis (≥2): 12.5%
  Percentage of Animals with Moderate Dermatitis (≥3): 6.3%
[1]; 250 mg/mL CBD, Day 10
  Percentage of Animals with Moderate Dermatitis (≥2): 75%
  Percentage of Animals with Moderate Dermatitis (≥3): 12.5%
[1]; 250 mg/mL CBD, Day 12
  Percentage of Animals with Moderate Dermatitis (≥2): 100%
  Percentage of Animals with Moderate Dermatitis (≥3): 62.5%
[1]; 250 mg/mL CBD, Day 14
  Percentage of Animals with Moderate Dermatitis (≥2): 93.8%
  Percentage of Animals with Moderate Dermatitis (≥3): 93.3%
[1]; 250 mg/mL CBD, Day 16
  Percentage of Animals with Moderate Dermatitis (≥2): 93.7%
  Percentage of Animals with Moderate Dermatitis (≥3): 75%
[1]; 250 mg/mL CBD, Day 18
  Percentage of Animals with Moderate Dermatitis (≥2): 83.3%
  Percentage of Animals with Moderate Dermatitis (≥3): 58.3%
[1]; 250 mg/mL CBD, Day 20
  Percentage of Animals with Moderate Dermatitis (≥2): 66.7%
  Percentage of Animals with Moderate Dermatitis (≥3): 25%
[1]; 250 mg/mL CBD, Day 22
  Percentage of Animals with Moderate Dermatitis (≥2): 33.3%
  Percentage of Animals with Moderate Dermatitis (≥3): 0%
[1]; 250 mg/mL CBD, Day 24
  Percentage of Animals with Moderate Dermatitis (≥2): 50%
  Percentage of Animals with Moderate Dermatitis (≥3): 0%
[1]; 250 mg/mL CBD, Day 26
  Percentage of Animals with Moderate Dermatitis (≥2): 50%
  Percentage of Animals with Moderate Dermatitis (≥3): 0%
[1]; 250 mg/mL CBD, Day 28
  Percentage of Animals with Moderate Dermatitis (≥2): 0%
  Percentage of Animals with Moderate Dermatitis (≥3): 0%
[1]; Day 8
  Dermatitis score (mean): 0.88
[1]; Day 10
  Dermatitis score (mean): 1.63
[1]; Day 12
  Dermatitis score (mean): 1.81
[1]; Day 14
  Dermatitis score (mean): 2.25
[1]; Day 16
  Dermatitis score (mean): 1.92
[1]; Day 18
  Dermatitis score (mean): 1.42
[1]; Day 20
  Dermatitis score (mean): 1.08
[1]; Day 22
  Dermatitis score (mean): 1.17
[1]; Day 24
  Dermatitis score (mean): 1.08
[1]; Day 26
  Dermatitis score (mean): 1.00
[1]; Day 28
  Dermatitis score (mean): 0.92
[1]; all CBD-treated groups (Groups 4, 5, 6)
  Percentage of days with moderate dermatitis compared to the irradiated group (Group 2): significantly lower
[2]
  % Days ≥2: 61.22%
